From patent publication US12257247B2 (Monte Rosa Therapeutics AG, priority 2023, dated 2025)
Where two headings read alike, the source gives them in different places.

Molecular target: T1, VAV1 (Homo sapiens, UniProt P15498+Q96SW2)
T1 construct: A heterozygous VAV1 C-terminal HiBiT knock-in pool was generated at Monte Rosa Therapeutics from a clonal Jurkat cell; endogenous in cells; host or cells: Jurkat clone stably expressing LgBiT, homozygous GSPT1-G575N; heterozygous VAV1-HiBiT knock-in pool
Experiment: VAV1 degradation activity, VAV1-HiBiT knock-in Jurkat luminescence assay (Example A, Table 1)
Assay type: cell-based
Conditions: VAV1-HiBiT knock-in Jurkat cells; for Dmax: Jurkat
Summary of the method: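 Jurkat cells carrying VAV1-HiBiT knock-in, plated in RPMI/10% FBS with Endurazine live-cell substrate and pre-incubated ~16 h at 37° C. Compound dosed from 10 μM stock; luminescence read 6 and 24 h later. Response normalised to plate negative/positive controls, EC50 from 3-parameter logistic fit (hillslope 1).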

[1] = luminescence read at 6 and 24 hours, read-out: VAV1 Dmax %
[2] = luminescence read at 6 and 24 hours, read-out: VAV1 Dmax %, class
[3] = luminescence read at 6 and 24 hours, read-out: VAV1 DC50
[4] = luminescence read at 6 and 24 hours, read-out: VAV1 DC50 (nM), class
[5] = luminescence read at 6 and 24 hours
[6] = luminescence read at 6 and 24 hours after compound addition, read-out: VAV1 Dmax %
[7] = luminescence read at 6 and 24 hours after compound addition, read-out: VAV1 Dmax %, class
[8] = luminescence read at 6 and 24 hours after compound addition, read-out: VAV1 DC50
[9] = luminescence read at 6 and 24 hours after compound addition, read-out: VAV1 DC50 (nM), class

Row | SMILES | Dmax [1] [%] | Dmax [2] [%] | DC50 [3] [nM] | DC50 [4] [nM] | VAV1 Dmax % [5] [%] | VAV1 Dmax %, class [5] | Dmax [6] [%] | Dmax [7] [%] | DC50 [8] [nM] | DC50 [9] [nM]
1 | O=C1CCC(c2cccc(-c3ccc(CCN4CCOCC4)cc3)c2Cl)C(=O)N1 (stereo not drawn) [Compound 122] | 81.3 | 60 to 90 | 48.8 | ≤ 100 |  |  |  |  |  | 
2 | O=C1CCC(c2cccc(-c3ccc(N4CCCCC4C(F)(F)F)cc3)c2Cl)C(=O)N1 (stereo not drawn) [Compound 476] | 84 | 60 to 90 | 397 | 100 to 1000 |  |  |  |  |  | 
3 | CC1(C)CN(c2cccc(-c3ccc(CC4CCC(=O)NC4=O)cc3Cl)c2)C(=O)CO1 (stereo not drawn) [Compound 280] |  |  | 44.9 | ≤ 100 | 83.31 | B (B represents Dmax % >60% and <=90%) |  |  |  | 
4 | O=C1CCC(c2cccc(-c3ccc(-c4cccc5ocnc45)cc3)c2Cl)C(=O)N1 (stereo not drawn) [Compound 460, 3-(4′-(benzo[d]oxazol-4-yl)-2-chloro-[1,1′-biphenyl]-3-yl)piperidine-2,6-dione] | 89.9 | 60 to 90 | 277 | 100 to 1000 |  |  |  |  |  | 
5 | CN1CC(=O)N(Cc2ccc(-c3cccc(C4CCC(=O)NC4=O)c3Cl)cc2)c2cccnc21 (stereo not drawn) [Compound 255] | 89.5 | 60 to 90 | 11 | ≤ 100 |  |  |  |  |  | 
6 | O=C1CCC(c2cccc(-c3ccc4c(cnn4Cc4ncccn4)c3)c2Cl)C(=O)N1 (stereo not drawn) [Compound 396, 3-(2-chloro-3-(1-(pyrimidin-2-ylmethyl)-1H-indazol-5-yl)phenyl)piperidine-2,6-dione] | 96.9 | > 90 | 4.98 | ≤ 100 |  |  |  |  |  | 
7 | Cn1ccc(Cc2noc3cc(-c4cccc(C5CCC(=O)NC5=O)c4Cl)ccc23)n1 (stereo not drawn) [Compound 510, 3-(2-chloro-3-(3-((1-methyl-1H-pyrazol-3-yl)methyl)benzo[d]isoxazol-6-yl)phenyl)piperidine-2,6-dione] |  |  |  |  |  |  | 89.2 | 60 to 90 | 78.6 | ≤ 100
8 | Cn1cnc(COc2ccc(-c3cccc(C4CCC(=O)NC4=O)c3Cl)cc2)c1 (stereo not drawn) [Compound 183, 3-(2-chloro-4′-((1-methyl-1H-imidazol-4-yl)methoxy)-[1,1′-biphenyl]-3-yl)piperidine-2,6-dione] | 95.7 | > 90 | 5.55 | ≤ 100 |  |  |  |  |  | 
9 | O=C1CCC(c2cccc(-c3ccc(N4Cc5ncccc5C4=O)cc3)c2Cl)C(=O)N1 (stereo not drawn) [Compound 466, 3-(2-chloro-4′-(5-oxo-5,7-dihydro-6H-pyrrolo[3,4-b]pyridin-6-yl)-[1,1′-biphenyl]-3-yl)piperidine-2,6-dione] | 35.2 | < 60 | ≥ 10000 | > 1000 |  |  |  |  |  | 
10 | O=C1CCC(c2cccc(-c3ccc(-n4cccc(CC(F)F)c4=O)cc3)c2Cl)C(=O)N1 (stereo not drawn) [Compound 444, 3-(2-chloro-4′-(3-(2,2-difluoroethyl)-2-oxopyridin-1(2H)-yl)-[1,1′-biphenyl]-3-yl)piperidine-2,6-dione] | 97.7 | > 90 | 7.1 | ≤ 100 |  |  |  |  |  | 
11 | CN1Cc2cccc(-c3ccc(-c4cccc(C5CCC(=O)NC5=O)c4Cl)cc3)c2S1(=O)=O (stereo not drawn) [Compound 406, 3-(2-chloro-4′-(2-methyl-1,1-dioxido-2,3-dihydrobenzo[d]isothiazol-7-yl)-[1,1′-biphenyl]-3-yl)piperidine-2,6-dione] | 82.4 | 60 to 90 | 25.9 | ≤ 100 |  |  |  |  |  | 
12 | O=C1CCC(c2cccc(-c3ccc(OCc4ccccn4)cc3)c2Cl)C(=O)N1 (stereo not drawn) [Compound 103] | 93.6 | > 90 | 45.4 | ≤ 100 |  |  |  |  |  | 
13 | CC1Cc2cc(-c3cccc(C4CCC(=O)NC4=O)c3Cl)ccc2N1 (stereo not drawn) [Compound 500, 3-(2-chloro-3-(2-methylindolin-5-yl)phenyl)piperidine-2,6-dione] |  |  |  |  |  |  | 98.5 | > 90 | 7.51 | ≤ 100
14 | Cn1cc(CNc2ccc(-c3cccc(C4CCC(=O)NC4=O)c3Cl)cc2)cn1 (stereo not drawn) [Compound 193, 3-(2-chloro-4′-(((1-methyl-1H-pyrazol-4-yl)methyl)amino)-[1,1′-biphenyl]-3-yl)piperidine-2,6-dione] | 91.7 | > 90 | 13.3 | ≤ 100 |  |  |  |  |  | 
15 | Cc1cc(-c2cccc(C3CCC(=O)NC3=O)c2Cl)ccc1-n1ccccc1=O (stereo not drawn) [Compound 199, 3-(2-chloro-3′-methyl-4′-(2-oxopyridin-1(2H)-yl)-[1,1′-biphenyl]-3-yl)piperidine-2,6-dione] | 66.8 | 60 to 90 | 1280 | > 1000 |  |  |  |  |  | 

Second part, the molecule after the results:

Row | Dmax [1] [%] | Dmax [2] [%] | DC50 [3] [nM] | DC50 [4] [nM] | VAV1 Dmax % [5] [%] | VAV1 Dmax %, class [5] | Dmax [6] [%] | Dmax [7] [%] | DC50 [8] [nM] | DC50 [9] [nM] | SMILES
16 | 98.5 | > 90 | 2.8 | ≤ 100 |  |  |  |  |  |  | O=C1CCC(c2cccc(-c3ccc(N4C(=O)CCCC45CC5)cc3)c2Cl)C(=O)N1 (stereo not drawn) [Compound 232, 3-(2-chloro-4′-(5-oxo-4-azaspiro[2.5]octan-4-yl)-[1,1′-biphenyl]-3-yl)piperidine-2,6-dione]
17 | 97.8 | > 90 | 3.46 | ≤ 100 |  |  |  |  |  |  | O=C1CCC(c2cccc(-c3ccc(N4C(=O)COCC45CC5)cc3)c2Cl)C(=O)N1 (stereo not drawn) [Compound 324]
18 | 46 | < 60 | ≥ 10000 | > 1000 |  |  |  |  |  |  | O=C1CCC(c2cccc(-c3ccc(N4C(=O)C5CC4C5)cc3)c2Cl)C(=O)N1 (stereo not drawn) [Compound 481, 3-(2-chloro-4′-{3-oxo-2-azabicyclo[2.1.1]hexan-2-yl}-[1,1′-biphenyl]-3-yl)piperidine-2,6-dione]
19 | 98.2 | > 90 | 3.26 | ≤ 100 |  |  |  |  |  |  | CC1(C)CCCC(=O)N1c1ccc(-c2cccc(C3CCC(=O)NC3=O)c2Cl)cc1 (stereo not drawn) [Compound 403, 3-(2-chloro-4′-(2,2-dimethyl-6-oxopiperidin-1-yl)-[1,1′-biphenyl]-3-yl)piperidine-2,6-dione]
20 | 95.8 | > 90 | 34.5 | ≤ 100 |  |  |  |  |  |  | O=C1CCC(c2cccc(-c3ccc(Cc4cocn4)cc3)c2Cl)C(=O)N1 (stereo not drawn) [Compound 442, 3-(2-chloro-4′-(oxazol-4-ylmethyl)-[1,1′-biphenyl]-3-yl)piperidine-2,6-dione]
21 |  |  |  |  |  |  | 75.7 | 60 to 90 | 502 | 100 to 1000 | O=C1CCC(c2cccc(-c3ccc4c(c3)CC(=O)N4)c2Cl)C(=O)N1 (stereo not drawn) [Compound 493, 3-(2-chloro-3-(2-oxoindolin-5-yl)phenyl)piperidine-2,6-dione]
22 | 27 | < 60 | ≥ 10000 | > 1000 |  |  |  |  |  |  | O=C1CCC(c2cccc(-c3ccc(C4COC(=O)N4)c(F)c3)c2Cl)C(=O)N1 (stereo not drawn) [Compound 107]
23 | 79.6 | 60 to 90 | 246 | 100 to 1000 |  |  |  |  |  |  | O=C1CCC(c2cccc(-c3cnc(-n4ccccc4=O)c(F)c3)c2Cl)C(=O)N1 (stereo not drawn) [Compound 427, 3-(2-chloro-3-(3′-fluoro-2-oxo-2H-[1,2′-bipyridin]-5′-yl)phenyl)piperidine-2,6-dione]
24 | 94.8 | > 90 | 9.84 | ≤ 100 |  |  |  |  |  |  | CC1CCCC(=O)N1Cc1ccc(-c2cccc(C3CCC(=O)NC3=O)c2Cl)cc1 (stereo not drawn) [Compound 295]
25 | 98 | > 90 | 3.88 | ≤ 100 |  |  |  |  |  |  | O=C1CCC(c2cccc(-c3ccc(CN4CC5CCCC5C4=O)cc3)c2Cl)C(=O)N1 (stereo not drawn) [Compound 282]
26 | 98.2 | > 90 | 2.46 | ≤ 100 |  |  |  |  |  |  | CN1CC2(CCC2)N(c2ccc(-c3cccc(C4CCC(=O)NC4=O)c3Cl)cc2)C1=O (stereo not drawn) [Compound 341, 3-(2-chloro-4′-(7-methyl-6-oxo-5,7-diazaspiro[3.4]octan-5-yl)-[1,1′-biphenyl]-3-yl)piperidine-2,6-dione]
27 | 97.9 | > 90 | 3.53 | ≤ 100 |  |  |  |  |  |  | O=C1CCC(c2cccc(-c3ccc(N4C(=O)OCCC45CC5)cc3)c2Cl)C(=O)N1 (stereo not drawn) [Compound 345, 3-(2-chloro-4′-(5-oxo-6-oxa-4-azaspiro[2.5]octan-4-yl)-[1,1′-biphenyl]-3-yl)piperidine-2,6-dione]
28 | 90.8 | > 90 | 35.8 | ≤ 100 |  |  |  |  |  |  | O=C1CCC(c2cccc(-c3ccc(N4C(=O)OCC45CCC5)nc3)c2Cl)C(=O)N1 (stereo not drawn) [Compound 357, 3-(2-chloro-3-(6-(6-oxo-7-oxa-5-azaspiro[3.4]octan-5-yl)pyridin-3-yl)phenyl)piperidine-2,6-dione]
29 | 64 | 60 to 90 | 542 | 100 to 1000 |  |  |  |  |  |  | O=C1CCC(c2cccc(-c3ccc(N4CCCOC4=O)nc3)c2Cl)C(=O)N1 (stereo not drawn) [Compound 451, 3-(2-chloro-3-(6-(2-oxo-1,3-oxazinan-3-yl)pyridin-3-yl)phenyl)piperidine-2,6-dione]
30 |  |  |  |  |  |  | 94.3 | > 90 | 10.7 | ≤ 100 | O=C1CCC(c2cccc(-c3ccc4c(c3)CCC(=O)N4)c2Cl)C(=O)N1 (stereo not drawn) [Compound 492, 3-(2-chloro-3-(2-oxo-1,2,3,4-tetrahydroquinolin-6-yl)phenyl)piperidine-2,6-dione]
